Measurements as given in publication PMC4355294, “The Ingenious Structure of Central Rotor Apparatus in VoV1; Key for Both Complex Disassembly and Energy Coupling between V1 and Vo” (PLoS ONE, 2015).

Legend:
V1-H.s-DF = tested on: T1, V1-H.s-DF; assay: enzyme-coupled ATP regenerating ATPase assay, Michaelis-Menten fit; assay type: biochemical, Thermus thermophilus; details: 25°C; isolated V1
T1 construct: gene atpA
Description: enzyme-coupled ATP regenerating ATPase assay, Michaelis-Menten fit on V1-H.s-DF

V1-E.h-DF = tested on: T2, V1-E.h-DF; assay: as above; assay type: biochemical, Thermus thermophilus; details: 25°C; isolated V1
T2 construct: gene atpA
Description: enzyme-coupled ATP regenerating ATPase assay, Michaelis-Menten fit on V1-E.h-DF

Km (V1-H.s-DF): 480 ± 40 µM | Km (V1-E.h-DF): 760 ± 40 µM
SMILES: Nc1ncnc2c1ncn2[C@@H]1O[C@H](COP(=O)(O)OP(=O)(O)OP(=O)(O)O)[C@@H](O)[C@H]1O [ATP]
